Source: ChEMBL document CHEMBL1201862, “PubChem BioAssay data set” (2004)
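In this assay, cells in 96-well plates receive the compound at five concentrations for 48 hours. Endpoints are linearly interpolated between the surrounding concentrations. At the GI50, growth is halved.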 Active and inactive are the calls of the source. Rule as the data show it: active = GI50 up to about 1.1 µM and inactive = higher.

Experiments:
Assay in all cases: NCI tumour cell line growth inhibition, 48 h
786-0 = tested on: 786-0
A498 = tested on: A498
A549 = tested on: A549
ACHN = tested on: ACHN
CAKI-1 = tested on: CAKI-1
CCRF-CEM = tested on: CCRF-CEM
COLO 205 = tested on: COLO 205
DLD-1 = tested on: DLD-1
DMS-114 = tested on: DMS-114
DMS-273 = tested on: DMS-273
EKVX = tested on: EKVX
HCT-116 = tested on: HCT-116
HCT-15 = tested on: HCT-15
HL-60 = tested on: HL-60
HOP-18 = tested on: HOP-18
HOP-62 = tested on: HOP-62
HOP-92 = tested on: HOP-92
HT-29 = tested on: HT-29
IGROV-1 = tested on: IGROV-1
K562 = tested on: K562
KM12 = tested on: KM12
LOX IMVI = tested on: LOX IMVI
LXFL 529 = tested on: LXFL 529
M14 = tested on: M14
M19-MEL = tested on: M19-MEL
MOLT-4 = tested on: MOLT-4
Malme-3M = tested on: Malme-3M
NCI-H23 = tested on: NCI-H23
NCI-H460 = tested on: NCI-H460
NCI-H522 = tested on: NCI-H522
OVCAR-3 = tested on: OVCAR-3
OVCAR-4 = tested on: OVCAR-4
OVCAR-5 = tested on: OVCAR-5
OVCAR-8 = tested on: OVCAR-8
RPMI-8226 = tested on: RPMI-8226
RXF 393 = tested on: RXF 393
RXF 631 = tested on: RXF 631
SF-268 = tested on: SF-268
SF-295 = tested on: SF-295
SF-539 = tested on: SF-539
SK-MEL-28 = tested on: SK-MEL-28
SK-MEL-2 = tested on: SK-MEL-2
SK-MEL-5 = tested on: SK-MEL-5
SK-OV-3 = tested on: SK-OV-3
SN12C = tested on: SN12C
SNB-19 = tested on: SNB-19
SNB-75 = tested on: SNB-75
SNB-78 = tested on: SNB-78
SR = tested on: SR
SW-620 = tested on: SW-620
TK-10 = tested on: TK-10
U-251 = tested on: U-251
UACC-257 = tested on: UACC-257
UACC-62 = tested on: UACC-62
UO-31 = tested on: UO-31
XF498 = tested on: XF498
HCC 2998 = tested on: HCC 2998
KM-20L2 = tested on: KM-20L2
NCI-H226 = tested on: NCI-H226

**Q.** What does the source list for `O=C1NC2(CCCC2)C2CCCCC12O` (configuration not stated)?
**A.** GI50 (786-0): > 100 µM (inactive); GI50 (A498): > 100 µM (inactive); GI50 (A549): > 100 µM (inactive); GI50 (ACHN): > 100 µM (inactive); GI50 (CAKI-1): > 100 µM (inactive); GI50 (CCRF-CEM): > 100 µM (inactive); GI50 (COLO 205): > 100 µM (inactive); GI50 (DLD-1): > 100 µM (inactive); GI50 (DMS-114): > 100 µM (inactive); GI50 (DMS-273): > 100 µM (inactive); GI50 (EKVX): > 100 µM (inactive); GI50 (HCT-116): > 100 µM (inactive); GI50 (HCT-15): > 100 µM; GI50 (HL-60): > 100 µM (inactive); GI50 (HOP-18): > 100 µM (inactive); GI50 (HOP-62): > 100 µM (inactive); GI50 (HOP-92): > 100 µM (inactive); GI50 (HT-29): > 100 µM (inactive); GI50 (IGROV-1): > 100 µM (inactive); GI50 (K562): > 100 µM (inactive); GI50 (KM12): > 100 µM (inactive); GI50 (LOX IMVI): > 100 µM (inactive); GI50 (LXFL 529): > 100 µM (inactive); GI50 (M14): > 100 µM (inactive); GI50 (M19-MEL): > 100 µM (inactive); GI50 (MOLT-4): > 100 µM (inactive); GI50 (Malme-3M): > 100 µM (inactive); GI50 (NCI-H23): > 100 µM (inactive); GI50 (NCI-H460): > 100 µM (inactive); GI50 (NCI-H522): > 100 µM (inactive); GI50 (OVCAR-3): > 100 µM (inactive); GI50 (OVCAR-4): > 100 µM (inactive); GI50 (OVCAR-5): > 100 µM (inactive); GI50 (OVCAR-8): > 100 µM (inactive); GI50 (RPMI-8226): > 100 µM (inactive); GI50 (RXF 393): > 100 µM (inactive); GI50 (RXF 631): > 100 µM (inactive); GI50 (SF-268): > 100 µM (inactive); GI50 (SF-295): > 100 µM (inactive); GI50 (SF-539): > 100 µM (inactive); GI50 (SK-MEL-28): > 100 µM (inactive); GI50 (SK-MEL-2): > 100 µM (inactive); GI50 (SK-MEL-5): > 100 µM (inactive); GI50 (SK-OV-3): > 100 µM (inactive); GI50 (SN12C): > 100 µM (inactive); GI50 (SNB-19): > 100 µM (inactive); GI50 (SNB-75): > 100 µM (inactive); GI50 (SNB-78): > 100 µM (inactive); GI50 (SR): > 100 µM (inactive); GI50 (SW-620): > 100 µM (inactive); GI50 (TK-10): > 100 µM (inactive); GI50 (U-251): > 100 µM (inactive); GI50 (UACC-257): > 100 µM (inactive); GI50 (UACC-62): > 100 µM (inactive); GI50 (UO-31): > 100 µM (inactive); GI50 (XF498): > 100 µM (inactive)

**Q.** How did the GI50 (786-0) turn out when `N#CC1=C(O)NC(O)=C(C#N)C1c1ccc(C2C(C#N)=C(O)NC(O)=C2C#N)cc1` was run?
**A.** The GI50 was > 100 µM (inactive).

**Q.** What about the GI50 (A498) of the same compound?
**A.** Its GI50 is > 100 µM (inactive).

**Q.** And the GI50 (A549)?
**A.** Its GI50 is 58.9 µM (inactive).

**Q.** And the GI50 (ACHN)?
**A.** Its GI50 is > 100 µM (inactive).

**Q.** And the GI50 (CAKI-1)?
**A.** The GI50 was > 100 µM (inactive).

**Q.** What about the GI50 (CCRF-CEM) of the same compound?
**A.** The GI50 was 45.3 µM (inactive).

**Q.** What about the GI50 (COLO 205) of the same compound?
**A.** The GI50 was 26.8 µM (inactive).

**Q.** And the GI50 (DLD-1)?
**A.** Its GI50 is 55.7 µM (inactive).

**Q.** And the GI50 (DMS-114)?
**A.** Its GI50 is > 100 µM (inactive).

**Q.** And the GI50 (DMS-273)?
**A.** Its GI50 is > 100 µM (inactive).

**Q.** And the GI50 (EKVX)?
**A.** The GI50 was > 100 µM (inactive).

**Q.** And the GI50 (HCC 2998)?
**A.** The GI50 was > 100 µM (inactive).

**Q.** What about the GI50 (HCT-116) of the same compound?
**A.** Its GI50 is > 100 µM (inactive).

**Q.** And the GI50 (HCT-15)?
**A.** The GI50 was 50.8 µM.

**Q.** What about the GI50 (HL-60) of the same compound?
**A.** Its GI50 is 28.3 µM (inactive).

**Q.** And the GI50 (HOP-18)?
**A.** Its GI50 is > 100 µM (inactive).

**Q.** And the GI50 (HOP-62)?
**A.** Its GI50 is > 100 µM (inactive).

**Q.** What about the GI50 (HT-29) of the same compound?
**A.** The GI50 was > 100 µM (inactive).

**Q.** And the GI50 (IGROV-1)?
**A.** The GI50 was > 100 µM (inactive).

**Q.** What about the GI50 (K562) of the same compound?
**A.** Its GI50 is 53.2 µM (inactive).

**Q.** What about the GI50 (KM-20L2) of the same compound?
**A.** Its GI50 is > 100 µM (inactive).

**Q.** And the GI50 (KM12)?
**A.** Its GI50 is > 100 µM (inactive).

**Q.** And the GI50 (LOX IMVI)?
**A.** Its GI50 is 35.2 µM (inactive).

**Q.** What about the GI50 (LXFL 529) of the same compound?
**A.** Its GI50 is > 100 µM (inactive).

**Q.** And the GI50 (M14)?
**A.** The GI50 was > 100 µM (inactive).

**Q.** And the GI50 (M19-MEL)?
**A.** The GI50 was 67.8 µM (inactive).

**Q.** And the GI50 (MOLT-4)?
**A.** The GI50 was 94.6 µM (inactive).

**Q.** And the GI50 (Malme-3M)?
**A.** The GI50 was > 100 µM (inactive).

**Q.** What about the GI50 (NCI-H226) of the same compound?
**A.** The GI50 was > 100 µM (inactive).

**Q.** What about the GI50 (NCI-H23) of the same compound?
**A.** The GI50 was > 100 µM (inactive).

**Q.** What about the GI50 (NCI-H460) of the same compound?
**A.** The GI50 was 46.5 µM (inactive).

**Q.** What about the GI50 (NCI-H522) of the same compound?
**A.** Its GI50 is 19.7 µM (inactive).

**Q.** And the GI50 (OVCAR-3)?
**A.** Its GI50 is > 100 µM (inactive).

**Q.** What about the GI50 (OVCAR-4) of the same compound?
**A.** Its GI50 is > 100 µM (inactive).

**Q.** What about the GI50 (OVCAR-8) of the same compound?
**A.** The GI50 was > 100 µM (inactive).

**Q.** And the GI50 (RPMI-8226)?
**A.** The GI50 was > 100 µM (inactive).

**Q.** And the GI50 (RXF 393)?
**A.** The GI50 was > 100 µM (inactive).

**Q.** And the GI50 (RXF 631)?
**A.** Its GI50 is > 100 µM (inactive).

**Q.** What about the GI50 (SF-268) of the same compound?
**A.** Its GI50 is > 100 µM (inactive).

**Q.** And the GI50 (SF-295)?
**A.** The GI50 was > 100 µM (inactive).

**Q.** What about the GI50 (SF-539) of the same compound?
**A.** Its GI50 is > 100 µM (inactive).

**Q.** What about the GI50 (SK-MEL-28) of the same compound?
**A.** Its GI50 is > 100 µM (inactive).

**Q.** And the GI50 (SK-MEL-2)?
**A.** Its GI50 is > 100 µM (inactive).

**Q.** What about the GI50 (SK-MEL-5) of the same compound?
**A.** The GI50 was > 100 µM (inactive).

**Q.** What about the GI50 (SK-OV-3) of the same compound?
**A.** Its GI50 is > 100 µM (inactive).

**Q.** And the GI50 (SN12C)?
**A.** The GI50 was 46.5 µM (inactive).

**Q.** And the GI50 (SNB-19)?
**A.** The GI50 was > 100 µM (inactive).

**Q.** And the GI50 (SNB-75)?
**A.** The GI50 was > 100 µM (inactive).

**Q.** What about the GI50 (SNB-78) of the same compound?
**A.** The GI50 was > 100 µM (inactive).

**Q.** And the GI50 (SW-620)?
**A.** Its GI50 is > 100 µM (inactive).

**Q.** What about the GI50 (TK-10) of the same compound?
**A.** The GI50 was > 100 µM (inactive).

**Q.** And the GI50 (U-251)?
**A.** Its GI50 is > 100 µM (inactive).

**Q.** And the GI50 (UACC-257)?
**A.** Its GI50 is > 100 µM (inactive).

**Q.** What about the GI50 (UACC-62) of the same compound?
**A.** The GI50 was > 100 µM (inactive).

**Q.** And the GI50 (UO-31)?
**A.** Its GI50 is > 100 µM (inactive).

**Q.** And the GI50 (XF498)?
**A.** Its GI50 is > 100 µM (inactive).
